The text below walks through data of ChEMBL document CHEMBL1155423, “Unprecedented NES non-antagonistic inhibitor for nuclear export of Rev from Sida cordifolia” (Bioorg Med Chem Lett, 2010).

The test can be described thus: Inhibition of CRM1 interaction with HIV1 HA-tagged Rev in HeLa cells assessed as inhibition of Rev nuclear export by indirect fluorescent antibody technique. In kind it is cell-based.
As for `CCCCC/C=C\C=C\C(O)CCCCCCCC(=O)O` (configuration not stated), the IC50 – broadly, the point on the concentration scale where inhibition reaches its midpoint – stood at 7.2 µM. For `CCCCC/C=C\C=C\C(O)CCC(=O)O` (configuration not stated) the value was greater than 30 µM. For `CCCCC/C=C\C=C\C(O)CCCCC(=O)O` (configuration not stated), the IC50 is greater than 30 µM.

Regarding `CC(O)CCCCCCCC(=O)O` (configuration not stated), the IC50 amounted to 20.8 µM.

`CCCCC/C=C\C=C\C(C)O` (configuration not stated): the IC50 was greater than 30 µM. Then `CCCCCCCCCC(O)CCCCCCCC(=O)O` (configuration not stated), with greater than 30 µM; and `CCCCC/C=C\C=C\CCCCCCCCC(=O)O`, with 15 µM.
